The values below come from patent publication US7423015B1, “Antihelminthic drugs as a treatment for hyperproliferative diseases” (Board of Regents, The University of Texas System, priority 2001, dated 2008).

One may read the viability as the share of living cells, or the viability signal relative to a control. In general, IC50 refers to the concentration at which inhibition is half-maximal.

One assay deals with H322. Description: Cell viability, trypan blue cell count assay. It counts as cell-based. Also noted: dose or concentration left out as unconfirmed. Conditions: Homo sapiens, NCI-H322, read-out: % Cell Viability. As to the method: (§1) All cell lines were grown in RPMI 1640 medium supplemented with 5% fetal bovine serum and 5% CO2. All experiments were done when the cells were 70% confluent. For cell growth measurements, 5×10^4 cells were plated in each well of six-well plates. Control and BZ-treated (0.05 μg/ml) cells were trypsinized and counted using a hemocytometer. Experiments were done in triplicate and the mean and standard deviation were determined by standard methods.
(§2) To further investigate the relationship between the induction of functional p53 and the subsequent apoptosis mediated by these drugs, the inventors posited that if BZs require wild-type p53 in order to exert their effect, then fenbendazole and mebendazole would not be cytotoxic to the many tumor lines producing a mutated p53 protein. To investigate this possibility, human cell lines derived from NSCLC origins of differing p53 status were further analyzed by a 5-day cell growth assay. The cells were plated onto a six-well plate, and the viability of the cells was determined by trypan blue exclusion. Cells were counted on a hemocytometer. The values shown are the means ±standard deviation of triplicate samples. Duplicate experiments gave similar results. H322 is a human lung adenocarcinoma line that produces a mutant p53 protein. […] However, fenbendazole and mebendazole induced nuclear accumulation of p53 only in the H460 cell line, which carries wild-type p53 genes. […] Cells were exposed to FZ (filled bar) or MZ (hatched bar) for 24 hr. A concentration of 0.05 μg/ml FZ and MZ was used. An immunoblot analysis of nuclear p53 was also performed to determine whether these drugs induced the production of p53. Equal amounts of protein extracts from each cell line before and after treatment were used for this analysis.

Another assay relates to MDA 231. Briefly: Cell viability, trypan blue cell count assay. It counts as cell-based. Also on record: dose or concentration left out as unconfirmed. Conditions: Homo sapiens, MDA-MB-231, read-out: % Cell Viability. On the procedure: as §1, §2
Another assay relates to RD. Description: Cell viability, trypan blue cell count assay. It counts as cell-based. Also noted: dose or concentration left out as unconfirmed. The note with it: Homo sapiens, read-out: % Cell Viability. On the procedure: as §1, §2
In a further assay the test system is SW480. Description: Cell viability, trypan blue cell count assay. The format is cell-based. Also noted: dose or concentration left out as unconfirmed. The note with it: Homo sapiens, SW480, read-out: % Cell Viability. As to the method: as §1, §2
Assay [1] deals with H1299 (p53 deleted), H322 (p53 mutated), H460 (wt p53) and A549 (wt p53) human lung cancer cell lines. Briefly: 3-day growth assay with Ad5p53 and FZ. It counts as cell-based. As to the method: In those assays, growing, cultured cells were trypsinized and plated (10^4 cells/well) and then infected the next day with Ad5p53 at 1 MOI. Viral supernatant was then added, after which cells were incubated for 24 h, washed with PBS, fed fresh medium or incubated with medium containing FZ for 24 h, washed again, and fed fresh medium. In contrast, uninfected cells (controls) were treated with FZ for 24 h, washed with PBS, fed fresh medium, and then subjected to a 3-day growth assay (FIG. 4A).

The next assay has as its system A549 lung cancer cells. Briefly: Apoptotic cells by TdT-FACS analysis. It counts as cell-based, human.
The test system of assay [2] is breast, ovarian and colon carcinoma and osteosarcoma. Briefly: In vitro proliferation assay with MZ. Conditions: Homo sapiens. It counts as cell-based.
In assay [3] the test system is tumor vascularity of H460 xenografts (CD31). Briefly: Immunohistochemical analysis of CD31 in H460 tumors. It counts as in vivo, nu/nu mice. Conditions: H460 xenografts in nude mice. As to the method: Subcutaneous H460 tumors established in nu/nu mice that were either not treated or treated with MZ were harvested and fixed in 4% buffered formalin, paraffin embedded, and cut as […] thick sections. Tissue sections were stained for CD31 expression using rat anti-mouse CD31 antibody (Pharmingen) as previously described with slight modifications. Briefly, following deparafinzation and rehydration, tissue sections were treated with 0.3% H2O2 in methanol for 30 min to block endogenous peroxidase activity and were subsequently incubated with normal rat serum for 30 min at room temperature. Following incubation, slides were treated with protease for 15 min followed with rat monoclonal anti-CD31 antibody (1:1000 dilution) for 60 minutes. After 30 min incubation with anti-rat secondary antibody (provided with ABC kit, Vector) CD31 in tissues was detected with DAB by enhancement with avidin-biotin reaction ABC kit. The slides were counterstained with hematoxylin and then mounted with Aqua-mount (Lerner Labs, Pittsburgh, Pa.). The number of vascular areas staining positive for CD31 were analyzed under bright-field microscopy. A total of at least five fields per specimen were analyzed. In all the staining procedures, appropriate negative controls were included. […]

For assay [4], the system named is A549 metastatic lung colonies. Briefly: Lung metastases in vivo after tail vein injection. Also noted: species or system female nude mice. As to the method: To establish lung metastases, female nude mice were injected intravenously via tail vein with 10^6 A549 tumor cells suspended in […] of sterile PBS. Six days later, mice were divided into two groups of 5 mice each and treated. Group 1 received no treatment and group 2 received the experimental MZ drug orally at 1 mg of drug (100 μl) twice a week for 3 weeks. After 3 weeks, animals were euthanized by CO2 inhalation. Lungs from each of the mice from the two groups were injected intra-tracheally with India ink and fixed in Feketes solution. The therapeutic effect of MZ treatment was determined by counting the number of metastatic tumors in each lung under a dissecting microscope without knowledge of the treatment groups. The experiments were performed three times and data analyzed and interpreted as statistically significant if the p value was <0.05 by the Mann-Whitney rank-sum test.
Next, the inventors asked whether treatment with MZ would inhibit the growth of human metastatic lung cancer cells in vivo. About 300 metastatic colonies appeared on untreated mice 21 days after A549 cell injection into the tail vein (FIG. 6). This technique was reproducible as the totals blindly counted by two investigators differed by less than 10%. This experiment was performed three times with similar results. The oral administration of […] MZ reduced mean colony count to 80% of the mean value for controls (P<0.0001).

The test system of a further assay is VEGF. Description: VEGF expression/secretion in H460 cell line. The note with it: H460, treatment period 18 hours. The format is cell-based, human. On the procedure: FIG. 7. Percent Inhibition of VEGF Expression in H460 Cell Line After MZ Treatment. Treatment period was 18 hours; control (C); treatment (T).
(§3) One of the most encouraging findings is that MZ inhibited the neovascularization in the human xenografts tested. […] The inventors have thus shown that MZ is a potent antiangiogeneic agent. It had no effect on endothelial cell growth, instead directly targeting tumor cells in vivo. MZ may be effective in the treatment of cancer and other angiogenesis-dependent diseases.

The test system of assay [5] is HUVEC cell tube formation. Briefly: HUVEC tube formation in conditioned medium. It counts as cell-based, human.
Excerpt: as §3

Description for A549 lung cancer cells: Approximately 10^4 cells were seeded on tissue culture plates 24 h before drug treatment or adenoviral infection. […] FIG. 4C—A549 lung cancer cells were examined for apoptotic cell death 48 h after FZ and Ad5p53 treatment alone or in combination. Percent apoptotic cells were measured by TdT-FACS analysis.
For TdT FACS analysis control and treated cells were collected by trypsinization, washed in PBS, and fixed overnight in 70% ethanol. The next day, cells were rehydrated in PBS for 30 min, centrifuged, and resuspended in PBS. For DNA analysis, propidium iodide (PI) was added at 50 μg/ml, and the cells were incubated in the presence of RNase A (15 mg/ml for 30 min at 37° C.). To detect DNA strand breaks associated with apoptosis, cells were fixed in 1% formaldehyde for 15 min at 4° C., rinsed in PBS, and stored at 4° C. in ice-cold 70% ethanol. Before staining, the cells were washed in PBS, and 10^6 cells were resuspended in 50 ml of cacodylated buffer containing 100 μ/ml TdT enzyme and 0.5 nM biotin-16 dUTP for 30 min at 37° C. Cells were washed in PBS and resuspended in 100 ml of 4×SSC containing 2.5 mg/ml fluoresceinated avidin, 0.1% Triton X-100, and 5% dry fat milk and then incubated at room temperature for 30 min in the dark. […] Flow cytometry was carried out in a fluorescence-activated cell sorter (Epics Elite; Coulter, Inc., Hialeah, Fla.).

As to `COC(=O)Nc1nc2ccc(Sc3ccccc3)cc2[nH]1` [Fenbendazole, methy 5-(phenylthio)-2-benzimidazole-2-carbamate], the viability amounted to 65.9 ± 4.9% in the assay on H322, 65.3 ± 5% in the assay on MDA 231, 78.7 ± 12% in the assay with RD and 70.6 ± 7.6% with SW480. The “cell growth after FZ alone, p53-mutated and deleted cells” value in assay [1] (0.05 μg/ml FZ for 24 h) is listed as “not growth inhibited”. Besides, in assay [1] (0.05 μg/ml FZ for 24 h), the “growth inhibition after FZ alone, wt p53 H460 cells” value is reported as “significantly so”. The “cell growth after Ad5p53 plus FZ” value in assay [1] (Ad5p53-transduced cells (1 MOI, 24 h) treated with FZ for 24 h, all four cell lines, 3-days growth assay) is reported as “striking growth inhibition”. Moreover, the apoptotic cells with A549 lung cancer cells (48 h after combination treatment FZ and Ad5p53) is 30%; in the assay on A549 lung cancer cells (FZ treatment alone), 11%.
For the compound `COC(=O)Nc1nc2ccc(C(=O)c3ccccc3)cc2[nH]1` [Mebendazole, Methyl 5-benzoylbenzimidazole-2-carbamate], the viability in the assay on H322 was 68.5 ± 3.7%; with MDA 231, 66.2 ± 15.8%; in the assay on RD it was 72.2 ± 2.8%; with SW480 it was 63.6 ± 13.3%. The IC50 in assay [2] lay within 100 to 800 nM. Also, in assay [3], the “neovascularization (blood vessel density, CD31)” value was “profoundly reduced”. Besides, in assay [4] (H and E staining of lung tissues), the “size of tumor colonies (transverse diameter)” value was “significantly reduced”. In [4] (oral administration of 1 mg/ml MZ, 21 days after A549 injection, P<0.0001), the “mean colony count, % of the mean value for controls” value was 80%. In the assay on VEGF, the VEGF secretion entry is given as “marked down-regulation”. The “HUVEC cell tube formation” value in assay [5] is “inhibited”.
